This note sets out measurements from patent publication US9725414B2, “Fungicidal N-bicycloalkyl and N-tricycloalkyl pyrazole-4-(thio)carboxamide derivatives” (priority 2011, dated 2017).

Like-named read-outs stand apart in the source and are kept apart here.

One series relates to Botrytis cinerea. The series is described as follows: Example P: in vivo preventive test on Botrytis cinerea (grey mould), gherkin plants. The following applies: 500 ppm of active ingredient, grading 4 to 5 days after contamination. As to the method: In Vivo Preventive Test on Botrytis cinerea (Grey Mould) […] Gherkin plants (“Vert petit de Paris” variety), sown in starter cups on a 50/50 peat soil pozzolana substrate and grown at 24° C. are treated at the Z11 cotyledon stage by spraying with the active ingredient prepared as described above. Plants, used as controls, are treated with the mixture of acetone/tween/DMSO/water not containing the active material. After 24 hours, the plants are contaminated by spraying the cotyledons with an aqueous suspension of cryopreserved Botrytis cinerea spores (50 000 spores per mL). The spores are suspended in a nutrient solution composed of 10 g/L of PDB, 50 g/L of D-Fructose, 2 g/L of NH4NO3 and 1 g/L of KH2PO4. The contaminated gherkin plants are incubated at 17° C. and at 90% relative humidity. Grading (% of efficacy) is carried out 4 to 5 days after the contamination, in comparison with the control plants.

A short description of series [1]: log P by HPLC on reversed-phase column (C 18), EEC Directive 79831 Annex V.A8. The format is physicochemical. As to the method:
In table 1, the log P values were determined in accordance with EEC Directive 79831 Annex V.A8 by HPLC (High Performance Liquid Chromatography) on a reversed-phase column (C 18), using the method described below: Temperature: 40° C.; Mobile phases: 0.1% aqueous formic acid and acetonitrile; linear gradient from 10% acetonitrile to 90% acetonitrile. Calibration was carried out using unbranched alkan-2-ones (comprising 3 to 16 carbon atoms) with known log P values (determination of the log P values by the retention times using linear interpolation between two successive alkanones). lambda-max-values were determined using UV-spectra from 200 nm to 400 nm and the peak values of the chromatographic signals.

A further series deals with Puccinia recondita. The series is described as follows: Example M: in vivo preventive test on Puccinia recondita (brown rust on wheat). The conditions noted are these: 500 ppm of active ingredient, grading 12 days after contamination. As to the method: In Vivo Preventive Test on Puccinia recondita (Brown Rust on Wheat) […] Wheat plants (“Scipion” variety), sown in starter cups on a 50/50 peat soil pozzolana substrate and grown at 22° C., are treated at the 1 leaf stage (10 cm height) by spraying with the active ingredient prepared as described above. Plants, used as controls, are treated with the mixture of acetone/tween/DMSO/water not containing the active material. After 24 hours, the plants are contaminated by spraying the leaves with an aqueous suspension of Puccinia recondite spores (100 000 spores per mL). The spores are collected from an infected plant and are suspended in water containing 2.5 mL/L of Tween 80 at 10%. […] Grading (% of efficacy) is carried out 12 days after the contamination, in comparison with the control plants.

In the next series the test system is Septoria tritici. The series is described as follows: Example I: in vivo preventive test on Septoria tritici (wheat), acetone/tween/DMSO preparation. The following applies: 500 ppm of active ingredient, grading 24 days after contamination. As to the method:
In Vivo Preventive Test on Septoria tritici (Wheat) […] Wheat plants (“Scipion” variety), sown in starter cups on a 50/50 peat soil pozzolana substrate and grown at 22° C., are treated at the 1 leaf stage (10 cm height) by spraying with the active ingredient prepared as described above. Plants, used as controls, are treated with the mixture of acetone/tween/DMSO/water not containing the active material. After 24 hours, the plants are contaminated by spraying the leaves with an aqueous suspension of cryopreserved Septoria tritici spores (500 000 spores per mL). The contaminated wheat plants are incubated for 72 hours at 18° C. and at 100% relative humidity, and then for 21 days at 90% relative humidity. Grading (% of efficacy) is carried out 24 days after the contamination, in comparison with the control plants.

In series [2] the test system is Pyrenophora teres. The series is described as follows: Example F: in vivo preventive test on Pyrenophora teres (barley), acetone/tween/DMSO preparation. The conditions noted are these: 500 ppm of active ingredient, barley, grading 14 days after contamination. As to the method: In Vivo Preventive Test on Pyrenophora teres (Barley) […] Barley plants (“Plaisant” variety), sown in starter cups on a 50/50 peat soil pozzolana substrate and grown at 22° C., are treated at the 1 leaf stage (10 cm height) by spraying with the active ingredient prepared as described above. Plants, used as controls, are treated with the mixture of acetone/tween/DMSO/water not containing the active material. After 24 hours, the plants are contaminated by spraying the leaves with an aqueous suspension of Pyrenophora teres spores (12 000 spores per mL). The spores are collected from a 12-day-old culture. […] Grading (% of efficacy) is carried out 14 days after the contamination, in comparison with the control plants.

In another series the test system is Sphaerotheca fuliginea. In words: Example B: in vivo preventive test on Sphaerotheca fuliginea (powdery mildew on cucurbits), gherkin plants. The conditions noted are these: 500 ppm of active ingredient, grading 12 days after contamination. As to the method: In Vivo Preventive Test on Sphaerotheca fuliginea (Powdery Mildew on Cucurbits) […] Gherkin plants (“Vert petit de Paris” variety), sown in starter cups on a 50/50 peat soil-pozzolana substrate and grown at 24° C. are treated at the Z11 cotyledon stage by spraying with the active ingredient prepared as described above. Plants, used as controls, are treated with the mixture of acetone/tween/DMSO/water not containing the active material. After 24 hours, the plants are contaminated by spraying the cotyledons with an aqueous suspension of Sphaerotheca fuliginea spores (100 000 spores per mL). The spores are collected from infected plants.

Another series relates to Uromyces appendiculatus. The series is described as follows: Example Q: in vivo preventive test on Uromyces appendiculatus (bean rust). The conditions noted are these: Uromyces appendiculatus on bean plants, 500 ppm of active ingredient, grading 11 days after contamination. As for the experimental part:
In Vivo Preventive Test on Uromyces appendiculatus (Bean Rust) […] Bean plants (“Saxa” variety), sown in starter cups on a 50/50 peat soil pozzolana substrate and grown at 24° C., are treated at the 2 leaf stage (9 cm height) by spraying with the active ingredient prepared as described above. Plants, used as controls, are treated with the mixture of acetone/tween/DMSO/water not containing the active material. After 24 hours, the plants are contaminated by spraying the leaves with an aqueous suspension of Uromyces appendiculatus spores (150 000 spores per mL). The spores are collected from infected plants and are suspended in water containing 2.5 mL/L of Tween 80 at 10%. […] Grading (% of efficacy) is carried out 11 days after the contamination, in comparison with the control plants.

The next series deals with Alternaria solani. In words: Example C: in vivo preventive test on Alternaria solani (tomato). The conditions noted are these: 500 ppm of active ingredient, evaluated 7 days after inoculation. As for the experimental part: (§1) In Vivo Preventive Test on Alternaria solani (Tomato) Solvent: 49 parts by weight of N,N-dimethylformamide Emulsifier: 1 part by weight of alkylarylpolyglycolether To produce a suitable preparation of active compound, 1 part by weight of active compound is mixed with the stated amounts of solvent and emulsifier, and the concentrate is diluted with water to the desired concentration. To test for preventive activity, young plants are sprayed with the preparation of active compound at the stated rate of application. One day after this treatment, the plants are inoculated with an aqueous spore suspension of Alternaria solani. The plants remain for one day in an incubation cabinet at approximately 22° C. and a relative atmospheric humidity of 100%. Then the plants are placed in an incubation cabinet at approximately 20° C. and a relative atmospheric humidity of 96%.

The test system of series [3] is Pyrenophora teres. The series is described as follows: Example E: in vivo preventive test on Pyrenophora teres (barley), DMF/emulsifier preparation. The following applies: 500 ppm of active ingredient, evaluated 7-9 days after inoculation. As for the experimental part: as §1, with “Pyrenophora teres (Barley)” for “Alternaria solani (Tomato)”, “alkylaryl polyglycol ether” for “alkylarylpolyglycolether”, “Pyrenophora teres.” for “Alternaria solani.”, “48 hours” for “one day”, “at” for “at approximately”, “100%.” for “100%. Then the plants are placed in an incubation cabinet at approximately 20° C. and a relative atmospheric humidity of 96%.”

[4] abbreviates: HPLC reversed-phase C 18, 40° C., 0.1% aqueous formic acid and acetonitrile gradient, several values = mixture of two or more isomers.

With `CC1C(NC(=O)c2cn(C)nc2C(F)F)CC2CC1C2(C)C` (stereo not drawn) [Example 52], the Efficacy in the series on Botrytis cinerea was 80%. Besides, the lipophilicity (logP) in series [1] came out at 3.19.

Take `Cn1nc(C(F)F)c(C(=O)N(CC2CCC3CCCC3C2)C2CC2)c1Cl` (stereo not drawn) [Example 64]: the Efficacy worked out at 94% in the series on Puccinia recondita, 93% in the series with Septoria tritici, 71% in the series with Pyrenophora teres [2] and 89% in the series on Sphaerotheca fuliginea. Also, the logP in series [1] (setting [4]) amounted to 4.59.

For the compound `CC1C(NC(=O)c2c(C(F)F)nn(C)c2Cl)CC2CC1C2(C)C` (stereo not drawn) [Example 51], the Efficacy in the series on Botrytis cinerea is listed as 95%. The compound further came in with a logP in [1] of 3.79.

Turning to `Cn1cc(C(=O)N(CC2CCC3CCCC3C2)C2CC2)c(C(F)F)n1` (stereo not drawn) [Example 63], the Efficacy amounted to 81% in the series with Puccinia recondita; 97% in the series with Septoria tritici; 85% in the series with Botrytis cinerea; 79% with Pyrenophora teres [2]; 100% in the series on Sphaerotheca fuliginea. The logP in series [1] (setting [4]) is given as 3.92.

In the case of `Cn1nc(C(F)F)c(C(=O)NC23CC4CC(CC(C4)C2)C3)c1Cl` [Example 57], the Efficacy in the series with Septoria tritici and in the series with Botrytis cinerea was 75% in each case. For the same compound, the logP in series [1] is recorded as 3.81.

For the compound `Cn1cc(C(=O)N(C2CC2)C2CC3CCCCC3C2)c(C(F)F)n1` (stereo not drawn) [Example 13], the Efficacy with Uromyces appendiculatus is listed as 91%; with Septoria tritici, 90%; in the series on Botrytis cinerea, 100%; in the series with Pyrenophora teres [2], 97%; in the series with Sphaerotheca fuliginea, 80%. For the same compound, the logP in [1] (setting [4]) is listed as 3.61.

For `Cn1nc(C(F)F)c(C(=O)N(CC2CC3C=CC2C3)C2CC2)c1F` (stereo not drawn) [Example 73], the Efficacy in the series on Botrytis cinerea worked out at 93%; in the series with Pyrenophora teres [2] it was 100%. The log partition coefficient (logP) in [1] worked out at 3.23.

As for `CON(C(=O)c1c(C(F)F)nn(C)c1F)C(C)C1CC2CCC1C2` (stereo not drawn) [Example 99], the Efficacy in the series with Puccinia recondita was 95%; in the series on Botrytis cinerea it was 100%; in the series on Pyrenophora teres [2], 100%; in the series with Sphaerotheca fuliginea, 100%. The lipophilicity (logP) in [1] (setting [4]) turned out to be 3.67.

For `CC1C(NC(=O)c2c(C(F)F)nn(C)c2Cl)CC2CC1C2(C)C` (stereo not drawn) [Example 53], the Efficacy in the series with Septoria tritici amounted to 83%; in the series with Botrytis cinerea, 99%; in the series with Pyrenophora teres [2], 75%. Moreover, in series [1] (setting [4]), the logP was 3.79.

Consider `CON(C(=O)c1cn(C)nc1C(F)F)C(C)C1CC2CCC1C2` (stereo not drawn) [Example 100], for which the Efficacy in the series with Uromyces appendiculatus is recorded as 100%; in the series on Puccinia recondita, 90%; with Botrytis cinerea, 100%; in the series on Pyrenophora teres [2] it was 100%; in the series with Sphaerotheca fuliginea, 100%. For the same compound, in series [1] (setting [4]), the logP amounted to 3.42.

With `Cn1nc(C(F)F)c(C(=O)N(C2CC2)C2CCC3CCCC3C2)c1Cl` (mixture of isomers) [Example 21], the Efficacy was determined as 90% in the series with Alternaria solani, 100% in the series on Pyrenophora teres [3], 98% in the series on Uromyces appendiculatus and 94% in the series on Puccinia recondita.

Turning to `Cn1cc(C(=O)N(C2CC2)C2CCC3CCCC3C2)c(C(F)F)n1` (mixture of isomers) [Example 23], the Efficacy in the series with Alternaria solani was 80%; in the series on Pyrenophora teres [3], 100%; in the series on Puccinia recondita, 81%; with Sphaerotheca fuliginea, 83%.

In the case of `Cn1nc(C(F)F)c(C(=O)NC2CC3CCC2C3)c1Cl` (stereo not drawn) [Example 47], the Efficacy in the series on Uromyces appendiculatus stood at 83%; in the series on Septoria tritici, 83%; in the series on Botrytis cinerea, 97%; with Pyrenophora teres [2] it was 88%. The logP in series [1] (setting [4]) is 2.64.

For the compound `Cn1nc(C(F)F)c(C(=O)NC23CC4CC(CC(C4)C2)C3)c1F` [Example 56], the figures for the Efficacy with Septoria tritici and in the series on Botrytis cinerea were 83% and 100%, respectively. In addition, the lipophilicity (logP) in [1] was determined as 3.57.

With `Cn1nc(C(F)F)c(C(=O)NC2CC3CCC2C3)c1F` (stereo not drawn) [Example 48], the Efficacy is on record as 87% in the series on Uromyces appendiculatus; 75% with Puccinia recondita; 83% in the series with Septoria tritici; 83% in the series with Botrytis cinerea; 88% in the series with Pyrenophora teres [2]. In [1] (setting [4]), the logP was found to be 2.46.

As for `Cn1cc(C(=O)NC2CCC3CCCC32)c(C(F)F)n1` (stereo not drawn) [Example 1], the results for the Efficacy in the series with Uromyces appendiculatus, in the series with Puccinia recondita and in the series with Septoria tritici were 95%, 94% and 80%, respectively. Moreover, the logP in series [1] (setting [4]) turned out to be 2.51.

For `Cn1nc(C(F)F)c(C(=O)N(C2CC2)C2CCC3CCCCC3C2)c1F` (mixture of isomers) [Example 38], the Efficacy amounted to 95% with Alternaria solani; 100% with Pyrenophora teres [3]; 100% in the series on Uromyces appendiculatus; 100% in the series on Puccinia recondita; 96% with Septoria tritici; 100% with Pyrenophora teres [2]. Further, in the series on Sphaerotheca fuliginea, the Efficacy worked out at 93%.

`CC1C(NC(=O)c2cn(C)nc2C(F)F)CC2CC1C2(C)C` (stereo not drawn) [Example 54] came in with an Efficacy in the series on Botrytis cinerea of 85%. In [1], this compound yielded a log partition coefficient (logP) of 3.19.

`Cn1cc(C(=O)NC2CC3CCC2C3)c(C(F)F)n1` (stereo not drawn) [Example 46]: the Efficacy is recorded as 85% in the series with Uromyces appendiculatus, 75% with Septoria tritici and 88% with Botrytis cinerea. Also, in series [1] (setting [4]), the log partition coefficient (logP) came out at 2.14.
